# Measurements reported in publication PMC9331004 (Scientific Reports, 2022).
# Like-named read-outs stand apart in the source and are kept apart here.
# How the values were obtained:
# in vitro = settings: African green monkey, CC50, Vero-E6 cells, crystal violet
# [1] = test system: MERS-CoV (isolate NRCE-HKU270); test: microbe, parasite or virus in culture; assay type: cell-based; settings: for IC50: Middle East respiratory syndrome-related coronavirus
# [2] = test system: SARS-CoV-2 (hCoV-19/Egypt/NRC-3/2020, NRC-03-nhCoV); test: microbe, parasite or virus in culture; assay type: cell-based; settings: for IC50: Severe acute respiratory syndrome coronavirus 2, Vero C1008, 72 h
# MERS-CoV [3] = assay type: cell-based
# MERS-CoV [4] = assay type: cell-based; remark: listed apart in the source
# SARS-CoV-2 [5] = test: microbe, parasite or virus in culture; assay type: cell-based
# SARS-CoV-2 [6] = assay type: cell-based
# [7] = Vero C1008, read-out: IC50 against MERS-CoV
# [8] = read-out: IC50 against SARS-CoV-2
# [9] = Vero C1008, read-out: IC50 MERS-CoV
SMILES,CC50 at 72 h (in vitro) [µM],"IC50 [1, 7] [µM]",IC50 ([2]; read-out: IC50 SARS-CoV-2) [µM],"IC50 [2, 8] [µM]",mode of action against MERS-CoV (MERS-CoV [3]),effect on viral RNA copy number (qRT-PCR) (MERS-CoV [4]),effect on viral RNA copy number (qRT-PCR) (SARS-CoV-2 [5]),mode of action against SARS-CoV-2 (SARS-CoV-2 [6]),selectivity index (CC50/IC50) for SARS-CoV-2 [2],CC50 at 72 h (in vitro; values given in Fig. 2) [µM],"IC50 [1, 9] [µM]",selectivity index (CC50/IC50) for MERS-CoV [1],"inhibition at 8.3 µM (SARS-CoV-2 [5]; Severe acute respiratory syndrome coronavirus 2, Vero C1008, 48 h, read-out: viral inhibition compared to untreated and infected cells (qRT-PCR)) [%]"
CN1CCN(C(=O)O[C@H]2c3nccnc3C(=O)N2c2ccc(Cl)cn2)CC1 [Eszopiclone],193,99.9,80,80,,,,,,,,,
CN[C@H]1CC[C@@H](c2ccc(Cl)c(Cl)c2)c2ccccc21 [Sertraline],116,,,,virucidal and adsorption mechanisms,reduction in viral RNA copy number,,,,,,,
CN(C)CCC=C1c2ccccc2CCc2ccccc21 [Amitriptyline],306,129,,10.7,,,reduction in viral RNA copy number,remarkable virucidal effect and effects on virus replication,28.5,,,,
CN(C)CCCC1(c2ccc(F)cc2)OCc2cc(C#N)ccc21 (stereo not drawn) [Citalopram],295,302,,172,,,,,,295,303,,
CN(C)CCCN1c2ccccc2CCc2ccccc21 [Imipramine],270,14.2,29.5,29.4,virucidal and replication potential combination mechanisms,reduction in viral RNA copy number,,,,271,,19,
Fc1ccc([C@@H]2CCNC[C@H]2COc2ccc3c(c2)OCO3)cc1 [Paroxetine],264,7.7,,22.7,virucidal and replication potential combination mechanisms,reduction in viral RNA copy number,reduction in viral RNA copy number,remarkable virucidal effect and effects on virus replication,11.6,,7.73,34.2,99
CN(C)CCC[C@@]1(c2ccc(F)cc2)OCc2cc(C#N)ccc21 [Escitalopram],352,93.5,,209,,,,,,,93.6,,
CN1CCN2c3ncccc3Cc3ccccc3C2C1 (stereo not drawn) [Mirtazapine],572,132,,180,,,,,,572,,,
